# Data reported in patent publication US20230095701A1, “Use of Albiflorin in Treatment of Coronavirus Pneumonia” (priority 2020, published 2023).
# Columns and labels:
# [1] = system: IDO1; assay: IDO1 in hippocampus of chronic stress rats, Western Blot; parameters: secretion of IDO1 in the hippocampus (in words): dose or concentration left out as unconfirmed; settings: 7 days; for IDO1: hippocampus of chronic stress rats, blank control 1.0, model 1.0
# [2] = system: IL-6; assay: IL-6 content in plasma of acute stress model mice (ELISA); type: in vivo, ICR mice
# [3] = system: erythropoietin EPO; assay: Hypoxia tolerance experiment; type: in vivo; settings: hypoxic state of the body
# [4] = system: cPLA2; assay: cPLA2 in hippocampus of chronic unpredictable mild stress (CUMS) rats; settings: 7 days, 7 mg/kg, FIG. 10
# [5] = system: intestinal flora metabolism; assay: Targeted metabolomics (LC-MS/MS, VIP analysis) of feces of chronic stress (CUMS) depression model rats; settings: 7 mg/kg/d intragastric, 7 days, compared with the depression group
# Protocol: 32 healthy male SD rats, weighing 180-220 g, are randomly divided into a blank control group (Control), a model group (CUMS), a fluoxetine group (FLX), and an albiflorin group (Albiflorin), with 8 in each group.
# Except for the blank control group, all groups receive randomly designed stress stimulation, and are then administrated intragastrically with fluoxetine (10 mg/kg/d) and albiflorin (7 mg/kg/d) for 7 consecutive days in terms of 1.0 mL/100 g body weight after 29 days of stress stimulation, while the corresponding stress stimulation is continued in the course of administration. All drugs are prepared into solutions or suspensions with physiological saline before use, and dissolved by ultrasonic waves.
# After 7 days of administration, the administration ends, and 24 hours later, behavioral tests are performed. After the tests, the animals are anesthetized and sacrificed. The plasma, hippocampal tissues, and feces of the animals are collected separately, and preserved for later use by using appropriate methods according to the experimental requirements. […]
# The metabolite extract is taken, dissolved in 100 μl mobile phase, and the main metabolites in the sample are determined by LC-MS/MS (Shimadzu LC-20AD-Qtrap 5500 tandem mass spectrometer (SCIEX, USA)). […]
# The obtained chromatographic peak information (Wiff file) is imported into Multiquant 3.0 (SCIEX, USA), and the obtained chromatographic peaks are area-integrated and checked manually. […] The analyzed data is imported into Metaboanalyst for multivariate analysis (PLS-DA, OPLS-DA and VIP analysis), metabolic pathways analysis and correlation analysis.
# [6] = system: SphK1; assay: SphK1 in hippocampus of chronic stress rats, Western Blot; parameters: SphK1 in the hippocampus (in words): dose or concentration left out as unconfirmed; settings: for SphK1: hippocampus of chronic stress rats, blank control 1.0, model 1.1
# [7] = system: intestinal flora; assay: Intestinal flora function and structure in CUMS rats (metabolomics, 16sDNA high-throughput metagenomic sequencing); settings: 7 days
# [8] = system: SphK2; assay: SphK2 in hippocampus of chronic stress rats, Western Blot; parameters: SphK2 in the hippocampus (in words): dose or concentration left out as unconfirmed; settings: for SphK2: hippocampus of chronic stress rats, blank control 1.0, model 1.8
# [9] = compared with the depression group, VIP analysis, FIG. 15
compound,measurement,setting,value
C[C@]12C[C@@H](O)[C@@H]3C[C@@]1(O[C@@H]1O[C@H](CO)[C@@H](O)[C@H](O)[C@H]1O)[C@@]3(COC(=O)c1ccccc1)C(=O)O2 [Albiflorin],secretion of IDO1 in the hippocampus (in words),"[1]; CUMS rats, P<0.01",significantly inhibited
same,IDO1,[1]; 7 mg/kg,0.8 ± 0.007
same,IDO1,[1]; 14 mg/kg,0.7 ± 0.007
same,secretion of IL-6,"[2]; 8 mg/kg intragastric, P<0.01, FIG. 8",most significant inhibitory effect
same,secretion of IL-6,"[2]; low dose range, intragastric, 2 days, FIG. 8",certain inhibitory effect
same,secretion of IL-6,"[2]; with the increase of the administration dose (up to 128 mg/kg), FIG. 8",secretion of IL-6 is promoted obviously
same,level of erythropoietin EPO,[3],increase
same,increase of cPLA2 in the hippocampus,[4],inhibit the increase of cPLA2
same,overall metabolism of intestinal flora,"[5]; CUMS rats, VIP analysis, FIG. 6",significantly improved
same,amino acid and vitamin content,[5]; feces of CUMS rats,increase
same,bile acid content,[5]; feces of CUMS rats,increase
same,SphK1 in the hippocampus (in words),"[6]; CUMS rats, 7 days, P<0.01",significantly decreased
same,SphK1,"[6]; 3.5 mg/kg, 7 days",1.2 ± 0.009
same,SphK1,"[6]; 7 mg/kg, 7 days",0.7 ± 0.004
same,SphK1,"[6]; 14 mg/kg, 7 days",0.5 ± 0.001
same,flora structure compared with the blank control group (cluster analysis),"[7]; 7 mg/kg/d, P>0.05, FIG. 14",without any statistical difference
same,"content of beneficial bacteria Firmicutes, especially lactic acid bacteria","[7]; 7 mg/kg/d, compared with the stress rat model group, FIG. 14",significant increase
same,content of bile acids and content of amino acids and vitamins,[7]; [9],increase
same,overall metabolism of intestinal flora,[7]; [9],significantly improved
same,SphK2 in the hippocampus (in words),"[8]; CUMS rats, 7 days, P<0.01",significantly decreased
same,SphK2,"[8]; 3.5 mg/kg, 7 days",2.2 ± 0.016
same,SphK2,"[8]; 7 mg/kg, 7 days",1.6 ± 0.010
same,SphK2,"[8]; 14 mg/kg, 7 days",2.1 ± 0.015
"C[C@@]12C[C@@]3(O)O[C@@H](O1)[C@]1(COC(=O)c4ccccc4)[C@H]3C[C@@]12O[C@@H]1O[C@H](CO)[C@@H](O)[C@H](O)[C@H]1O [Paeoniflorin, reference compound]",secretion of IL-6 in the blood,"[2]; 4 mg/kg and 8 mg/kg intragastric, P<0.05, FIG. 7",most significant inhibitory effect
same,secretion of IL-6 in the blood,"[2]; dose range 4, 8, 16, 32, 64 and 128 mg/kg intragastric, 2 days, FIG. 7",certain inhibitory effect
"CNCCC(Oc1ccc(C(F)(F)F)cc1)c1ccccc1 (stereo not drawn) [Fluoxetine, fluoxetine, reference compound]",SphK1,[6]; fluoxetine group,1.5 ± 0.009
same,SphK2,[8]; fluoxetine group,2.1 ± 0.016
